Measured values from patent publication US20170152226A1, “FUNCTIONALISED AND SUBSTITUTED INDOLES AS ANTI-CANCER AGENTS” (Novogen Ltd., priority 2014, published 2017).
Where two headings read alike, the source gives them in different places.

Legend:
Experiment in all cases: Anti-proliferative activity, cell-titre luminescent viability assay
Format in all cases: cell-based
[1] = test system: PC3; conditions: read-out: IC50 Prostate PC3
Description: (§1) The ability of compounds 3501-3540 and 3542-3545 to inhibit the proliferation of cancer cells representative of neuroblastoma, melanoma, prostate cancer, colorectal cancer, non-small cell lung carcinoma, and triple negative breast cancer was assessed. Briefly, a pre-determined number of cells as calculated from cell growth assays for each of the cell lines employed were seeded into their respective culture medium (using ATCC culture parameters—http://www.atcc.org) and cultured for 24 hours at 37° C. and 5% CO2 in 96-well culture plates. Once attached, each cell line was then exposed to increasing concentrations of each respective analogue (0.03, 0.3, 3 and 30 μM for compounds in Table 1; 0.1, 0.3, 1, 3, 10 and 30 μM for compounds in Table 2), cultured for a further 72 hours and exposed to cell-titre luminescent reagent (100 μL/well) for a further 30 min) to assess for cell viability. Luminescence was captured using an EnVision multilabel reader and the data for each analogue concentration was normalized, as a percentage, to the no treatment control. For compounds 3501, 3503, 3505-08, 3512-18, 3520, 3522-24 and 3531-36, semi-log plots of Percent of Control versus concentration were prepared and IC50 determined using linear regression analysis. For compounds 3502, 3504, 3509-11, 3519, 3521, 3525-30, 3537-40 and 3542-45, cell viability was normalized to control (vehicle alone) and dose-response curves, and half maximal effective concentration (EC50) values were determined using Graph Pad Prism 6 (nonlinear regression sigmoidal dose-response variable slope).

[2] = test system: MDA-MB-231; conditions: read-out: IC50 Breast MDA-MB-231
Description: as §1

[3] = test system: CaCo2; conditions: read-out: IC50 Colorectal CaCo2
Description: as §1

[4] = test system: SK-N-SH; conditions: read-out: IC50 Neuroblastoma SK-N-SH
Description: as §1

[5] = test system: SK-Mel-28; conditions: 72 hours, read-out: IC50 Melanoma SK-Mel-28
Description: as §1

[6] = test system: DU145; conditions: read-out: IC50 Prostate DU145
Description: as §1

[7] = test system: A549; conditions: read-out: IC50 Lung (NSLC) A549
Description: as §1

[8] = Homo sapiens, PC-3, 72 h, 0.1, 0.3, 1, 3, 10 and 30 μM, nonlinear regression sigmoidal dose-response (EC50)
[9] = Homo sapiens, MDA-MB-231, 72 h, 0.1, 0.3, 1, 3, 10 and 30 μM, nonlinear regression sigmoidal dose-response (EC50)
[10] = Homo sapiens, Caco-2, 72 h, 0.1, 0.3, 1, 3, 10 and 30 μM, nonlinear regression sigmoidal dose-response (EC50)
[11] = Homo sapiens, SK-N-SH, 72 h, 0.1, 0.3, 1, 3, 10 and 30 μM, nonlinear regression sigmoidal dose-response (EC50)
[12] = Homo sapiens, SK-MEL-28, 0.1, 0.3, 1, 3, 10 and 30 μM, nonlinear regression sigmoidal dose-response (EC50)
[13] = Homo sapiens, DU-145, 72 h, 0.1, 0.3, 1, 3, 10 and 30 μM, nonlinear regression sigmoidal dose-response (EC50)
[14] = Homo sapiens, A549, 72 h, 0.1, 0.3, 1, 3, 10 and 30 μM, nonlinear regression sigmoidal dose-response (EC50)
[15] = Homo sapiens, PC-3, 72 h, 0.03, 0.3, 3 and 30 μM, linear regression of semi-log plots
[16] = Homo sapiens, MDA-MB-231, 72 h, 0.03, 0.3, 3 and 30 μM, linear regression of semi-log plots
[17] = Homo sapiens, Caco-2, 72 h, 0.03, 0.3, 3 and 30 μM, linear regression of semi-log plots
[18] = Homo sapiens, SK-N-SH, 72 h, 0.03, 0.3, 3 and 30 μM, linear regression of semi-log plots
[19] = Homo sapiens, SK-MEL-28, 0.03, 0.3, 3 and 30 μM, linear regression of semi-log plots
[20] = Homo sapiens, DU-145, 72 h, 0.03, 0.3, 3 and 30 μM, linear regression of semi-log plots
[21] = Homo sapiens, A549, 72 h, 0.03, 0.3, 3 and 30 μM, linear regression of semi-log plots
[22] = 72 hours, 0.03, 0.3, 3 and 30 μM, linear regression of semi-log plots

SMILES | IC50 [1, 8] | IC50 [2, 9] | IC50 [3, 10] | IC50 [4, 11] | IC50 [5, 12] | IC50 [6, 13] | IC50 [7, 14] | IC50 [1, 15] | IC50 [2, 16] | IC50 [3, 17] | IC50 [4, 18] | IC50 [5, 19] | IC50 [6, 20] | IC50 [7, 21] | further results
Cc1c(C)n(CCCN2CCN(C)CC2)c2ccc(Oc3cccc(C(=O)N4CCN(CCc5cccc(F)c5)CC4)c3)cc12 [Compound 3510, (3-((2,3-dimethyl-1-(3-(4-methylpiperazin-1-yl)propyl)-1H-indol-5-yl)oxy)phenyl)(4-(3-fluorophenethyl)piperazin-1-yl)methanone] | 8 µM | 20.4 µM | 5.8 µM | 4.6 µM | 4.9 µM | 8 µM | 6 µM |  |  |  |  |  |  |  | 
COc1cccc(CCN2CCN(C(=O)c3ccc(Oc4ccc5c(c4)c(C)c(C)n5CCCN4CCN(C)CC4)cc3)CC2)c1 [Compound 3529] | 4.8 µM | 4.5 µM | 4.2 µM | 2 µM | 2.4 µM | 4.2 µM | 4.4 µM |  |  |  |  |  |  |  | 
Cc1c(C)n(CCCN2CCN(C)CC2)c2ccc(Oc3ccc(C(=O)N4CCN(CCc5ccc6c(c5)OCO6)CC4)cc3)cc12 [Compound 3527, (4-(2-(benzo[d][1,3]dioxol-5-yl)ethyl)piperazin-1-yl)(4-((2,3-dimethyl-1-(3-(4-methylpiperazin-1-yl)propyl)-1H-indol-5-yl)oxy)phenyl)methanone] | 7.2 µM | 4.8 µM | 4.1 µM | 3.2 µM | 4.1 µM | 4.5 µM | 5 µM |  |  |  |  |  |  |  | 
Cc1c(C)n(CCCN2CCN(C)CC2)c2ccc(Nc3ccc(C(=O)N4CCN(CCc5ccc(F)cc5)CC4)cc3)cc12 [Compound 3531, (4-((2,3-dimethyl-1-(3-(4-methylpiperazin-1-yl)propyl)-1H-indol-5-yl)amino)phenyl)(4-(4-fluorophenethyl)piperazin-1-yl)methanone] |  |  |  |  |  |  |  | 4.6 µM | 3.5 µM | 4.2 µM | 3.4 µM | 2.8 µM | 3.9 µM | 3.9 µM | 
Cc1c(C)n(CCCN2CCN(C)CC2)c2ccc(Cc3ccc(C(=O)N4CCN(CCc5cccc(F)c5)CC4)cc3)cc12 [Compound 3522, (4-((2,3-dimethyl-1-(3-(4-methylpiperazin-1-yl)propyl)-1H-indol-5-yl)methyl)phenyl)(4-(3-fluorophenethyl)piperazin-1-yl)methanone] |  |  |  |  |  |  |  | 2.5 µM | 1.3 µM | 3 µM | 2 µM | 1 µM | 2.4 µM | 1.6 µM | 
COc1ccc(CCN2CCN(C(=O)c3ccc(Nc4ccc5c(c4)c(C)c(C)n5CCCN4CCN(C)CC4)cc3)CC2)cc1 [Compound 3536, (4-((2,3-dimethyl-1-(3-(4-methylpiperazin-1-yl)propyl)-1H-indol-5-yl)amino)phenyl)(4-(4-methoxyphenethyl)piperazin-1-yl)methanone] |  |  |  |  |  |  |  |  |  |  |  |  |  |  | IC50 [1, 22]: 4.3 µM; IC50 [2, 22]: 2.5 µM; IC50 [3, 22]: 12.9 µM; IC50 [4, 22]: 2.9 µM; IC50 ([5]; 0.03, 0.3, 3 and 30 μM, linear regression of semi-log plots): 2.7 µM; IC50 [6, 22]: 3.6 µM; IC50 [7, 22]: 3.1 µM
Cc1c(C)n(CCCN2CCN(C)CC2)c2ccc(Oc3cccc(C(=O)N4CCN(CCc5ccccc5)CC4)c3)cc12 [Compound 3512, (3-((2,3-dimethyl-1-(3-(4-methylpiperazin-1-yl)propyl)-1H-indol-5-yl)oxy)phenyl)(4-phenethylpiperazin-1-yl)methanone] |  |  |  |  |  |  |  | 2.1 µM | 1.2 µM | 3.2 µM | 1.8 µM | 0.7 µM | 1.3 µM | 1.3 µM | 
Cc1c(C)n(CCCN2CCN(C)CC2)c2ccc(Nc3ccc(C(=O)N4CCN(CCc5ccc6c(c5)OCO6)CC4)cc3)cc12 [Compound 3533, (4-(2-(benzo[d][1,3]dioxol-5-yl)ethyl)piperazin-1-yl)(4-((2,3-dimethyl-1-(3-(4-methylpiperazin-1-yl)propyl)-1H-indol-5-yl)amino)phenyl)methanone] |  |  |  |  |  |  |  | 3.3 µM | 4.2 µM | 3.9 µM | 3.3 µM | 4.8 µM | 3.7 µM | 3.7 µM | 
Cc1c(C)n(CCCN2CCN(C)CC2)c2ccc(Cc3ccc(C(=O)N4CCN(CCc5ccc6ccccc6c5)CC4)cc3)cc12 [Compound 3542, (4-((2,3-dimethyl-1-(3-(4-methylpiperazin-1-yl)propyl)-1H-indol-5-yl)methyl)phenyl) (4-(2-(naphthalen-2-yl)ethyl)piperazin-1-yl)methanone] | 3.6 µM | 2.8 µM | 3.9 µM | 1.6 µM | 1.4 µM | 3.9 µM | 3.1 µM |  |  |  |  |  |  |  | 
Cc1c(C)n(CCCN2CCN(C)CC2)c2ccc(Oc3ccc(C(=O)N4CCN(CCc5ccc(F)cc5)CC4)cc3)cc12 [Compound 3525, (4-((2,3-dimethyl-1-(3-(4-methylpiperazin-1-yl)propyl)-1H-indol-5-yl)oxy)phenyl)(4-(4-fluorophenethyl)piperazin-1-yl)methanone] | 4.5 µM | 4.3 µM | 4.1 µM | 1.9 µM | 1.7 µM | 4.1 µM | 3.8 µM |  |  |  |  |  |  |  | 
Cc1c(C)n(CCCN2CCN(C)CC2)c2ccc(Cc3cccc(C(=O)N4CCN(CCc5ccc6ccccc6c5)CC4)c3)cc12 [Compound 3537, (3-((2,3-dimethyl-1-(3-(4-methylpiperazin-1-yl)propyl)-1H-indol-5-yl)methyl)phenyl)(4-(2-(naphthalen-2-yl)ethyl)piperazin-1-yl)methanone] | 8 µM | 4.8 µM | 5 µM | 4.2 µM | 4.8 µM | 5.8 µM | 3.6 µM |  |  |  |  |  |  |  | 
COc1ccc2cc(CCN3CCN(C(=O)c4ccc(Cc5ccc6c(c5)c(C)c(C)n6CCCN5CCN(C)CC5)cc4)CC3)ccc2c1 [Compound 3543, (4-((2,3-dimethyl-1-(3-(4-methylpiperazin-1-yl)propyl)-1H-indol-5-yl)methyl)phenyl)(4-(2-(6-methoxynaphthalen-2-yl)ethyl)piperazin-1-yl)methanone] | 1.8 µM | 1.3 µM | 1.5 µM | 1.6 µM | 2 µM | 1.7 µM | 1.5 µM |  |  |  |  |  |  |  | 
Cc1c(C)n(CCCN2CCN(C)CC2)c2ccc(Nc3cccc(C(=O)N4CCN(CCc5ccccc5)CC4)c3)cc12 [Compound 3518, (3-((2,3-dimethyl-1-(3-(4-methylpiperazin-1-yl)propyl)-1H-indol-5-yl)amino)phenyl)(4-phenethylpiperazin-1-yl)methanone] |  |  |  |  |  |  |  | 4.1 µM | 2.1 µM | 2.5 µM | 2.3 µM | 2.4 µM | 3.2 µM | 3 µM | 
